Tested on: 5/6 Nephrectomy induced chronic kidney disease (CKD) in rat
Assay: 5/6 Nephrectomy induced chronic kidney disease in rat: IS and PCS blood level, mortality
Format: in vivo, Wistar rats (Rattus norvegicus)
Details: for IS Mean: Indoxyl Sulphate blood level, disease control 7.33; for IS Mean / PCS Mean: p.o. daily for 13 weeks; for PCS Mean: P-Cresyl Sulphate blood level, disease control 1.13; for IS % Decreased: decrease in Indoxyl Sulphate blood level compared to disease control; for IS % Decreased / PCS % Decreased: p.o. daily 13 weeks; for PCS % Decreased: decrease in P-Cresyl Sulphate blood level compared to disease control
Method: The effect of the compositions of the present invention and other test and reference compositions was studied in animals. For this study, screening effect of synergistic combination or composition/formulation comprising Inulin and other active ingredients against 5/6 Nephrectomy induced chronic kidney disease (CKD) in rat was performed. The following trials were carried out:
Eighty Four (84) female rats (Wistar rats (Rattus norvegicus)) divided into 14 groups (6 per group) were maintained in animal house in a light/dark atmosphere based on a 12 hour cycle having temperature and relative humidity in the range of 19 to 25±2° C. and 30-70%, respectively. To maintain the appropriate conditions, temperature and relative humidity were recorded three times daily. All animals were acclimatized for a minimum period of five days. Animals were maintained in the test setup for minimum 30 minutes once during the acclimatization period to reduce the stress. Animals were weighed on the day of receipt and observed daily for abnormalities if any. Detailed records of acclimatization were also maintained. Rats were housed 3 per cage in clean, sterilized Polypropylene cages. During complete experiment, animals were supplied with the standard certified rat pellet feed and drinking water treated by the reverse osmosis ad libitum.
In order to evaluate the activity against chronic kidney disease, eighty four (84) rats were screened and divided into Fourteen (14) groups. For a comparative analysis, groups were divided as normal control (Group 1 (G1)), sham Control (Group 2 (G2)), disease control (Group 3 (G3)), treatment groups with individual components (Group 4 (G4), Group 5 (G5) and Group 6 (G6) as Inulin, Betaine and Resistant Starch respectively), test composition (Group 7 (G7) to Group 11 (G11) (Combination of Inulin with Betaine at different dose level), test composition Group 12 (G12) to Group 13 (G13) (Combination of Inulin, Betaine and Resistant Starch) and reference standard (Group 14 (G14)) (Activated Charcoal). Table 1 provides the details of the various groups and treatments conducted in the trial wherein G4 to G14 are treatment groups. Experiment was carried out for 3 months in two stages.
The animals under consideration were examined for a study period of 13 weeks and two-stage surgical procedure for kidney ligation and removal were performed.
Stage one: A ventral midline incision into the abdomen was made to expose the animal's left kidney and the organ was freed from the surrounding tissue. A piece of suture was placed and ligated around each pole of the kidney at its one-third position. The one-third kidney on each pole was excised beyond the ligatures and the abdominal incision was closed.
Stage two: This procedure was performed 7 days after stage one. The animals were placed in ventral recumbency and an incision was made parallel to the midline. The abdominal cavity was entered, and the right kidney was made free from the surrounding tissue. The kidney was gently pulled out from the incision and the adrenal gland was freed and replaced into the abdominal cavity. The renal blood vessels and the ureter were ligated or cauterized. The kidney was then removed by transecting the vessels and ureter just distal to the ligature or cauterized section. The skin incision was closed with wound clips.
Treatment: All treatment groups were treated on daily basis for 13 weeks after stage two of surgery. Blood collection and biochemistry analysis were done after completion of the treatment of all treated groups at the end of 13th week treatment.

Compound	IS Mean	PCS Mean	IS % Decreased	PCS % Decreased
Resistant Starch [RS]	6.5 mg/L	1.01 mg/L	11.33%	10.62%
Inulin	5.55 mg/L	0.84 mg/L	24.29%	25.66%
C[N+](C)(C)CC(=O)O [Betaine]	7.01 mg/L	1.09 mg/L	4.37%	3.54%

Reference: patent US12048713B2, “Pharmaceutical composition for reducing protein bound uremic toxins” (Frimline Private Limited, priority 2020, dated 2024)
